Laboratory results published in ChEMBL document CHEMBL4364264, “Tetrazole hybrids with potential anticancer activity” (Eur J Med Chem, 2019).
Converted amounts (≈) assume the structure as drawn. One block for each molecule: values may come before it.

Key:
[1] = tested on: HCT-116; assay: Cytotoxicity against human HCT116 cells; assay type: functional, cell-based
[2] = tested on: PC-3; assay: Cytotoxicity against human PC3 cells; assay type: functional, cell-based
[3] = tested on: Caco-2; assay: Cytotoxicity against human Caco2 cells; assay type: functional, cell-based
[4] = tested on: SK-BR-3; assay: Cytotoxicity against human SKBR3 cells; assay type: functional, cell-based
[5] = tested on: HeLa; assay: Cytotoxicity against human HeLa cells; assay type: functional, cell-based
[6] = tested on: MCF7; assay: Cytotoxicity against human MCF7 cells; assay type: functional, cell-based
[7] = tested on: MDA-MB-231; assay: Cytotoxicity against human MDA-MB-231 cells; assay type: functional
[8] = tested on: PANC-1; assay: Cytotoxicity against human PANC1 cells; assay type: functional
[9] = tested on: SiHa; assay: Cytotoxicity against human SiHa cells; assay type: functional
[10] = tested on: MCF7; assay: Growth inhibition of human MCF7 cells by microtiter plate assay; assay type: functional
[11] = tested on: MDA-MB-231; assay: Growth inhibition of human MDA-MB-231 cells by microtiter plate assay; assay type: functional
[12] = tested on: DU-145; assay: Growth inhibition of human DU145 cells by microtiter plate assay; assay type: functional
[13] = tested on: PC-3; assay: cells; conditions: Homo sapiens, PC-3, 48 h
[14] = tested on: HT-29; assay: cells; conditions: Homo sapiens, HT-29, 48 h
Description: Antiproliferative activity against human HT-29 cells after 48 hrs by MTT assay

[15] = tested on: HepG2; assay: Cytotoxicity against human HepG2 cells after 96 hrs by MTT assay; assay type: functional, cell-based; conditions: HepG2, 96 h
[16] = tested on: HCT-116; assay: Cytotoxicity against human HCT116 cells after 96 hrs by MTT assay; assay type: functional, cell-based; conditions: HCT-116, 96 h
[17] = tested on: MCF7; assay: Growth inhibition of human MCF7 cells; assay type: functional
[18] = tested on: HeLa; assay: Growth inhibition of human HeLa cells; assay type: functional
[19] = tested on: HepG2; assay: Growth inhibition of human HepG2 cells; assay type: functional

Compound: O=C(/C=C/c1ccccc1Oc1nnnn1-c1ccccc1)c1ccccc1
IC50 [1]: 0.6 µg/mL (≈ 1.63 µM)
IC50 [2]: 1.6 µg/mL (≈ 4.34 µM)

Compound: COc1ccccc1C1C(c2nnn[nH]2)=C(N)Oc2ccc3ccccc3c21 (stereo not given)
IC50 [3]: 15 to 87 µM
IC50 [4]: 15 to 87 µM
IC50 [5]: 15 to 87 µM
IC50 [6]: 15 to 87 µM

Compound: CCn1cc(C(=O)O)c(=O)c2cnc(N3CCN(C(=O)CCSc4nnnn4-c4ccc(Br)cc4)CC3)nc21
GI50 [7]: 0.22 µM
GI50 [8]: 0.07 µM
GI50 [9]: 0.08 µM

GI50 [10]: 0.34 to 100 µM
GI50 [11]: 0.34 to 100 µM
GI50 [12]: 0.34 to 100 µM
Compound: CCc1cc2c(cc1O)CC[C@@H]1[C@@H]2CC[C@]2(C)[C@@H](Cc3nnnn3C)CC[C@@H]12

Compound: COc1ccc(C2C(c3nnn[nH]3)=C(N)Oc3ccc4ccccc4c32)cc1 (stereo not given)
IC50 [3]: 15 to 87 µM
IC50 [4]: 15 to 87 µM
IC50 [5]: 15 to 87 µM
IC50 [6]: 15 to 87 µM

IC50 [13]: 70.2 µM
IC50 [14]: 86.3 µM
Compound: O=C(O)Cn1nnc(-c2cn(-c3ccccc3)nc2-c2ccccc2)n1

Compound: COc1cc(-n2nnnc2SCCC(=O)N2CCN(c3cc4c(cc3F)c(=O)c(C(=O)O)cn4C3CC3)CC2)cc(OC)c1OC
GI50 [7]: 0.066 to 1.3 µM
GI50 [8]: 0.066 to 1.3 µM
GI50 [9]: 0.066 to 1.3 µM

Compound: COc1cc(/C=C/C(=O)c2ccccc2OC)ccc1Oc1nnnn1-c1ccccc1
IC50 [1]: 2.5 to 7 µg/mL (≈ 5.84 to 16.3 µM)
IC50 [2]: 2.5 to 7 µg/mL (≈ 5.84 to 16.3 µM)

Compound: COc1cc(/C=C/C(=O)c2ccc(Br)cc2)ccc1Oc1nnnn1-c1ccccc1
IC50 [1]: 2.5 to 7 µg/mL (≈ 5.24 to 14.7 µM)
IC50 [2]: 2.5 to 7 µg/mL (≈ 5.24 to 14.7 µM)

Compound: O=C(O)c1cn(C2CC2)c2cc(N3CCN(C(=O)CCSc4nnnn4-c4ccc(F)c(F)c4F)CC3)c(F)cc2c1=O
GI50 [7]: 0.066 to 1.3 µM
GI50 [8]: 0.066 to 1.3 µM
GI50 [9]: 0.066 to 1.3 µM

Compound: CC[C@H](CC[C@@H](C)[C@H]1CC[C@H]2[C@H]3[C@H](CC[C@]12C)[C@@]1(C)CCCCC1=Cc1nnnn13)C(C)C
IC50 [15]: 4.82 µM
IC50 [16]: 4.58 µM

GI50 [17]: 8.2 to 41 µM
GI50 [18]: 8.2 to 41 µM
GI50 [19]: 8.2 to 41 µM
Compound: CN(C)C(=O)NC(c1ccc(Cl)cc1)n1cnnn1 (stereo not given)

IC50 [13]: 7.23 to 48.3 µM
IC50 [14]: 7.23 to 48.3 µM
Compound: Cc1ccc(-c2nn(-c3ccccc3)cc2-c2nnn(CC(=O)O)n2)cc1

Compound: COc1ccc(C2C(c3nnn[nH]3)=C(N)Oc3ccc4ccccc4c32)c(OC)c1 (stereo not given)
IC50 [3]: 15 to 26 µM
IC50 [4]: 15 to 26 µM
IC50 [5]: 15 to 26 µM
IC50 [6]: 15 to 26 µM

Compound: COc1cccc(C2C(c3nnn[nH]3)=C(N)Oc3ccc4ccccc4c32)c1OC (stereo not given)
IC50 [3]: 15 to 87 µM
IC50 [4]: 15 to 87 µM
IC50 [5]: 15 to 87 µM
IC50 [6]: 15 to 87 µM

GI50 [17]: 5.2 to 29.8 µM
GI50 [18]: 5.2 to 29.8 µM
GI50 [19]: 5.2 to 29.8 µM
Compound: NC(=S)NNC(c1ccc(Cl)cc1)n1cnnn1 (stereo not given)

Compound: CCn1cc(C(=O)O)c(=O)c2cnc(N3CCN(C(=O)CCSc4nnnn4-c4ccc(F)c(F)c4F)CC3)nc21
GI50 [7]: 0.066 to 1.3 µM
GI50 [8]: 0.066 to 1.3 µM
GI50 [9]: 0.066 to 1.3 µM

Compound: O=C(O)c1cn(C2CC2)c2cc(N3CCN(C(=O)CCSc4nnnn4Cc4ccccc4)CC3)c(F)cc2c1=O
GI50 [7]: 0.085 to 1.15 µM
GI50 [8]: 0.085 to 1.15 µM
GI50 [9]: 0.085 to 1.15 µM

GI50 [17]: 5.2 to 8.1 µM
GI50 [18]: 5.2 to 8.1 µM
GI50 [19]: 5.2 to 8.1 µM
Compound: NC(=S)NNC(c1ccccc1)n1cnnn1 (stereo not given)

IC50 [13]: 7.23 to 48.3 µM
IC50 [14]: 7.23 to 48.3 µM
Compound: COc1ccccc1-c1nn(-c2ccccc2)cc1-c1nnn(CC(=O)O)n1

Compound: O=C(O)c1cn(C2CC2)c2cc(N3CCN(C(=O)CCSc4nnnn4-c4ccc(C(F)(F)F)cc4)CC3)c(F)cc2c1=O
GI50 [7]: 0.066 to 1.3 µM
GI50 [8]: 0.066 to 1.3 µM
GI50 [9]: 0.066 to 1.3 µM

Compound: COc1cc(/C=C/C(=O)c2cccs2)ccc1Oc1nnnn1-c1ccccc1
IC50 [1]: 2.5 µg/mL (≈ 6.18 µM)
IC50 [2]: 5 µg/mL (≈ 12.4 µM)
IC50 [6]: 2.9 µg/mL

Compound: COc1cc(/C=C/C(=O)c2ccco2)ccc1Oc1nnnn1-c1ccccc1
IC50 [1]: 2.5 to 7 µg/mL (≈ 6.44 to 18 µM)
IC50 [2]: 2.5 to 7 µg/mL (≈ 6.44 to 18 µM)

Compound: O=C(O)c1cn(C2CC2)c2cc(N3CCN(C(=O)CCSc4nnnn4-c4ccccc4)CC3)c(F)cc2c1=O
GI50 [7]: 0.085 to 1.15 µM
GI50 [8]: 0.085 to 1.15 µM
GI50 [9]: 0.085 to 1.15 µM

Compound: CCn1cc(C(=O)O)c(=O)c2cnc(N3CCN(C(=O)CCSc4nnnn4-c4ccc(OC)c(OC)c4OC)CC3)nc21
GI50 [7]: 0.066 to 1.3 µM
GI50 [8]: 0.066 to 1.3 µM
GI50 [9]: 0.066 to 1.3 µM

Compound: NC1=C(c2nnn[nH]2)C(c2cccc(O)c2)c2c(ccc3ccccc23)O1 (stereo not given)
IC50 [3]: 15 to 87 µM
IC50 [4]: 15 to 87 µM
IC50 [5]: 15 to 87 µM
IC50 [6]: 15 to 87 µM
